Source: patent publication US20120308562A1, “METHODS OF TREATING MESOTHELIOMA WITH A PI3K INHIBITOR COMPOUND” (priority 2011, published 2012)
Where two headings read alike, the source gives them in different places.

Tests used:
MCF7-neo/HER2 cell line = MCF7-neo/HER2 cell line IC50; assay type: cell-based
[1] = stability in human microsomes; assay type: in vitro ADME
[2] = stability in human hepatocytes; assay type: in vitro ADME
hERG = hERG (Homo sapiens, UniProt Q12809); experiment: hERG activity
Sequence of hERG (Q12809 whole entry): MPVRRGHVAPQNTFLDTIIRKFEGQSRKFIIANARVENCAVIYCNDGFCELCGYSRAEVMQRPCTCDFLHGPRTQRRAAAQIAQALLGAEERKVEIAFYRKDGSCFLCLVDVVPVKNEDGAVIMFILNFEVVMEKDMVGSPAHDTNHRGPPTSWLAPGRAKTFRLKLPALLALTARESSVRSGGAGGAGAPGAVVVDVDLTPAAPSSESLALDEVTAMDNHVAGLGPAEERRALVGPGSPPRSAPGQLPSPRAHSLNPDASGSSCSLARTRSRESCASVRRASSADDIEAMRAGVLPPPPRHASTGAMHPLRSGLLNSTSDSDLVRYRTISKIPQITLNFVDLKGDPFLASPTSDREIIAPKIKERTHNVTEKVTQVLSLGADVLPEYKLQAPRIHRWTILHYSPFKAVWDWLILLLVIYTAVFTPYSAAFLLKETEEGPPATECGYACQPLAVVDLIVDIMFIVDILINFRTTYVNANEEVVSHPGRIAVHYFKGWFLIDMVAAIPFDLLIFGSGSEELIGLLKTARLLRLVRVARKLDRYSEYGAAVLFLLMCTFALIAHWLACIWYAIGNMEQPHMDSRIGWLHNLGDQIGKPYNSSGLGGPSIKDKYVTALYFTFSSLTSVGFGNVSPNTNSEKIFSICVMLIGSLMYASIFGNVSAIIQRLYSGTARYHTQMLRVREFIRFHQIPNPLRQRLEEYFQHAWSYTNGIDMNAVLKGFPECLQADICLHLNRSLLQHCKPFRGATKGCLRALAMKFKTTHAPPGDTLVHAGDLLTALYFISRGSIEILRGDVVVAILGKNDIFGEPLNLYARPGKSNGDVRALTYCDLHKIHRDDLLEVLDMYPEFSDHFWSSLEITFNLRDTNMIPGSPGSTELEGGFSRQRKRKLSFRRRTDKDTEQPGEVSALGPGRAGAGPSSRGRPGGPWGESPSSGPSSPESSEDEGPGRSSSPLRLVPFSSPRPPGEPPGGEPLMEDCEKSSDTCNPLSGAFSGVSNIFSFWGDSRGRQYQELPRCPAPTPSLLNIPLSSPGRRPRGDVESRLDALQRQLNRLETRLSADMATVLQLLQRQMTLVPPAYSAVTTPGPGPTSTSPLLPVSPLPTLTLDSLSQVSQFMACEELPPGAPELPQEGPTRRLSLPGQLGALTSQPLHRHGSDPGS

clearance in rodents = details: in vivo
clearance in dogs = details: dog, in vivo
[3] = pharmacokinetics after a single oral dose (species not given); assay type: in vivo; details: species not stated
[4] = tested on: MDA-MB-361.1 breast cancer xenograft; experiment: MDA-MB-361.1 breast cancer xenograft model; assay type: in vivo; details: QD
MDA-MB-361.1 xenografts = experiment: nonclinical PK/PD model of tumor growth inhibition with predicted human PK; details: predicted human PK and nonclinical PD data, preliminary
Text: A nonclinical PK/PD model of tumor growth inhibition was developed using the indirect response model (Jusko W J. “Pharmacodynamics of chemotherapeutic effects: dose-time-response relationships for phase-nonspecific agents”, J Pharm Sci (1971) 60:892-5) to fit exposure and growth inhibition data based on four sets of experiments examining varying schedules and doses in the MDA-MB-361.1 xenografts. The PK/PD model was then used to predict minimal exposure needed to achieve 50% tumor growth inhibition, using the predicted human PK data and the nonclinical PD data. […] On the basis of MLP allometric scaling, a daily dose of approximately 18 mg may achieve this exposure. Dose escalation will continue until the MTD, even if 1.7 μM·hr exposure is surpassed and well tolerated, since it is well established that tumor xenograft models are not absolutely predictive of clinical response (Sausville and Burger 2006).

[5] = Phase I clinical pharmacokinetics (plasma, LC-MS/MS); assay type: in vivo, human; details: for AUC(0-t): oral, individual patient, read-out: AUC0-24 h
Protocol: For Cycle 1 of the Phase I study, a single dose of GDC-0980 is administered to patients on Day 1 in a clinical setting that can accommodate frequent blood draws over a period of up to 48 hours after the dose is administered. Daily dosing will begin on Day 8 and continue for 21 days (Days 8-28), followed by a 7-day off-drug observation period (Days 29-35). Subsequent cycles will be 28 days in length (21 days of daily dosing followed by a 7-day observation period). Additional cohorts may be added to examine the tolerability of a 28-day dosing schedule with no observation period after the MTD is […] defined for the 21-day dosing schedule. GDC-0980 should be taken on an empty stomach (fasting) in the morning, unless otherwise instructed. For all patients Days 1 and 15 (PK sampling days), patients should be fasted overnight (at least 8-10 hours) prior to their dose on those days. On other days, patients should avoid consuming anything but water for 1 hour before and 2 hours after GDC-0980 administration. Each dose should be taken with a minimum of 3-4 ounces of water. […] PK: Plasma GDC-0980 concentrations were assayed by LC-MS/MS (Tandem Labs, Inc., Salt Lake City, Utah) with LLOQ 0.5 ng/mL and analyzed using noncompartmental analysis.

pAKT (S473) in PRP = experiment: pAKT in platelet-rich plasma (MSD assay), Phase I; assay type: in vivo, human
Protocol: pAKT in PRP: Total AKT and pAKT (S473) in PRP were measured by Meso Scale Discovery (MSD) assay, and the percent change in pAKT relative to baseline was calculated.

[6] = in vivo
Protocol: (§1) Patients with a history of Type 1 or 2 diabetes mellitus requiring regular medication were excluded. GDC-0980 was administered on Day 1, followed by 1 week of washout to evaluate single-dose PK and PD markers. GDC-0980 was then dosed QD for either 21 days or 28 days every 28-day cycle. Tumor assessments were performed after Cycles 1, 2, and then every 2 cycles using RECIST guidelines. Optional FDG-PET was obtained between Days 22-28 and Days 50-57.
(§2) Fasted blood glucose & insulin were monitored at clinical visits (pre-dose & 2 hrs post-dose). Dosing with GDC-0980 was allowed with =G2 blood glucose with appropriate monitoring, i.e., additional monitoring in clinic and fingerstick glucose testing at home.
(§3) Safety Analyses: All patients who receive any amount of GDC-0980 therapy will be included in the safety analyses. Safety will be assessed through summaries of adverse events, deaths, and changes in laboratory test results. All adverse events for all patients will be collected for the safety dataset. Verbatim descriptions of adverse events will be mapped to thesaurus terms. All recorded adverse event data will be listed by study site, patient, and cycle. All adverse events occurring on or after the first treatment will be summarized by mapped term, appropriate thesaurus levels, and NCI CTCAE, v3.0 toxicity grade. All serious adverse events will be listed separately and summarized. In addition, the incidence of symptomatic CHF and/or LVEF <40% will be summarized. Deaths reported during the study treatment period and those reported during follow-up after patient treatment discontinuation will be summarized. Laboratory data will be summarized by grade using the NCI CTCAE, v3.0 toxicity grade. Changes in LVEF over time will be summarized and listed by scheduled measurement time. The occurrence of antibodies to GDC-0980 will be listed.

mTOR = mTOR (Homo sapiens, UniProt P42345); experiment: biochemical
[7] = Phase I safety and tolerability
Protocol: as §1, §2, §3

mesothelioma = experiment: Phase I tumor response by RECIST, mesothelioma patients; details: person; for decrease in target lesions by RECIST: 21/28 day schedule
Protocol: Tumor assessments (CT and/or magnetic resonance imaging [MRI] scans) are performed approximately every 6 weeks irrespective of dose delays, interruptions, or reductions. Bone and brain scans (either CT or MRI) may be performed at baseline and if clinically indicated during the study. Patient management decisions were made based on tumor assessments performed by investigators. The primary study endpoints related to response were determined by an independent radiologic review of patient scans, with assessments based on investigator reporting being secondary. If each non-target lesion cannot be assessed at a follow-up tumor assessment timepoint, patients may still be considered evaluable for timepoint response as long as all target lesions are measured. Patients with non-target lesions that were not assessed at a timepoint were assessed as having a partial response, stable disease, or progressive disease. All lesions, target and non-target, were assessed before a response was considered confirmed. To reduce the frequency of unevaluable non-target lesions, bone lesions visible on baseline CT scan as non-target lesion(s) for follow-up, were compared with bone lesions identified on the baseline bone scan where possible if lesions are not visible on both modalities or as easily and reproducibly assessed.
Tumor assessments were performed after Cycles 1, 2, and then every 2 cycles using RECIST guidelines. Optional FDG-PET was obtained between Days 22-28 and Days 50-57.

adrenal cortical cancer = experiment: Phase I tumor response by RECIST, adrenal cortical cancer patient; details: person, 40 mg QD, 28/28 day schedule
Protocol: (§4) Tumor assessments (CT and/or magnetic resonance imaging [MRI] scans) are performed approximately every 6 weeks irrespective of dose delays, interruptions, or reductions. Bone and brain scans (either CT or MRI) may be performed at baseline and if clinically indicated during the study. Patient management decisions were made based on tumor assessments performed by investigators. The primary study endpoints related to response were determined by an independent radiologic review of patient scans, with assessments based on investigator reporting being secondary. If each non-target lesion cannot be assessed at a follow-up tumor assessment timepoint, patients may still be considered evaluable for timepoint response as long as all target lesions are measured. Patients with non-target lesions that were not assessed at a timepoint were assessed as having a partial response, stable disease, or progressive disease. All lesions, target and non-target, were assessed before a response was considered confirmed. To reduce the frequency of unevaluable non-target lesions, bone lesions visible on baseline CT scan as non-target lesion(s) for follow-up, were compared with bone lesions identified on the baseline bone scan where possible if lesions are not visible on both modalities or as easily and reproducibly assessed. […]

solid tumors = experiment: Phase I best RECIST response and time on study, all enrolled patients; details: peritoneal mesothelioma and adrenal cancer patients
Protocol: as §4

[8] = human, plasma, patients, single oral dose

## Cc1c(CN2CCN(C(=O)[C@H](C)O)CC2)sc2c(N3CCOCC3)nc(-c3cnc(N)nc3)nc12 [GDC-0980, (S)-1-(4-((2-(2-aminopyrimidin-5-yl)-7-methyl-4-morpholinothieno[3,2-d]pyrimidin-6-yl)methyl)piperazin-1-yl)-2-hydroxypropan-1-one]
MCF7-neo/HER2 cell line
  IC50: 0.32 µM
[1]
  stability in human microsomes: stable
[2]
  stability in human hepatocytes: stable
hERG
  IC50: > 100 µM
Clearance in rodents
  clearance: 60 mL/min/kg
Clearance in dogs
  clearance: 12 mL/min/kg
[3]; in vivo, read-out: terminal half-life
  half-life: 6 to 18 h
[3]
  dose dependence of AUC and Cmax: dose-proportional increases
[4]
  minimum dose producing significant growth inhibition: 1.0 mg/kg
MDA-MB-361.1 xenografts
  minimal exposure (AUC) needed to achieve 50% tumor growth inhibition: approximately 1.7 μM·hr
[5]; human, plasma, 8 mg QD, 21/28 day schedule
  AUC(0-t): ~0.4 µM·h
[5]; human, plasma, 32 mg QD, 21/28 day schedule
  AUC(0-t): ~4.4 µM·h
[5]; human, plasma, 40 mg QD, 28/28 day schedule
  AUC(0-t): ~4.1 µM·h
[5]; human, plasma, 50 mg QD, 21/28 day schedule
  AUC(0-t): ~3 µM·h
[5]; [8]
  Tmax: ~2 h
  half-life: 6 to 18 h
[5]; patients, single oral dose
  dose dependence of AUC and Cmax: dose-proportional increases
pAKT (S473) in PRP; doses of 16 mg
  decrease in pAKT in PRP: 90%
pAKT (S473) in PRP; doses of 50 mg
  time for which significant inhibition of pAKT was maintained: 24 hours
[6]; human
  patients with increased blood glucose: 83.3%
[6]
  drug-related AEs that occurred in =10% of patients: fatigue, diarrhea, rash, nausea, decreased appetite, mucositis, hyperglycemia, vomiting, pruritus, GERD (Gastroesophageal reflux disease), and constipation
  number of patients with G3 increased blood glucose: Six
mTOR
  Ki: 0.0173 µM
[7]; QD, 21/28-day schedule
  dose at which the MTD was exceeded: 70 mg
[7]; metastatic colorectal cancer patient, 50 mg QD, about 1 week after starting Cycle 2
  G5 adverse event considered related to GDC-0980: G5 adverse event of colitis
mesothelioma; epitheloid mesothelioma, 8 mg QD, 21/28
  time on study before progression of disease: about 4.5 months
mesothelioma; epitheloid mesothelioma, PIK3CA R88Q, 8 mg QD, end of Cycle 2
  decrease in target lesions by RECIST: 26%
mesothelioma; epitheloid pleural mesothelioma, 50 mg QD, end of Cycles 1 and 2
  decrease in target lesions by RECIST: 26%
mesothelioma; peritoneal mesothelioma, 32 mg QD, end of Cycle 6
  decrease in target lesions by RECIST: 28%
Adrenal cortical cancer; after 3 weeks of treatment in Cycle 2
  decrease in target lesions by RECIST: 39%
Adrenal cortical cancer; end of Cycle 1
  decrease in target lesions by RECIST: 22%
Solid tumors
  number of patients still on study after a year: 2
